Measured values published in ChEMBL document CHEMBL5325412, “Privileged heterocycles for DNA-encoded library design and hit-to-lead optimization” (Eur J Med Chem, 2023).
≈ marks a conversion by molar mass, not a printed value.

Tests used:
[1] = Inhibition of MAPK p68 (unknown origin); design: species or system Homo sapiens
[2] = Inhibition of Hepatitis C virus genotype 1a NS4B; design: species or system Hepacivirus hominis
[3] = target: Mitogen-activated protein kinase 10 (Homo sapiens, UniProt P53779); experiment: Binding affinity to JNK3 (unknown origin) assessed as inhibition constant
Mitogen-activated protein kinase 10, sequence (P53779 whole entry): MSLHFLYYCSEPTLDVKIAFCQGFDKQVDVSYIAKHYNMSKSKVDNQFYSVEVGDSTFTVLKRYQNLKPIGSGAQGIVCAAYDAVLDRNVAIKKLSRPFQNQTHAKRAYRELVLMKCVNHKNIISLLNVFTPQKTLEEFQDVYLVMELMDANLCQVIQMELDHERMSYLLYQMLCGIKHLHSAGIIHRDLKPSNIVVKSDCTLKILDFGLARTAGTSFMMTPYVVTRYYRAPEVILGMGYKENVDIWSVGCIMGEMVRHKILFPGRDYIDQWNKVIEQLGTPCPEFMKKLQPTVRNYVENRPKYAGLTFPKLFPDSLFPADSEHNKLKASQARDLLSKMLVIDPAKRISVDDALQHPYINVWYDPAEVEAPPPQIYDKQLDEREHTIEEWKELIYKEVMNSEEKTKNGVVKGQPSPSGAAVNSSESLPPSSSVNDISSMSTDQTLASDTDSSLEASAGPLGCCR

[4] = target: CREB-binding protein (Homo sapiens, UniProt Q92793); experiment: Inhibition of N-terminal His-tagged CREBBP (unknown origin) expressed in Escherichia coli BL21 (DE3)
CREB-binding protein, sequence (Q92793 whole entry): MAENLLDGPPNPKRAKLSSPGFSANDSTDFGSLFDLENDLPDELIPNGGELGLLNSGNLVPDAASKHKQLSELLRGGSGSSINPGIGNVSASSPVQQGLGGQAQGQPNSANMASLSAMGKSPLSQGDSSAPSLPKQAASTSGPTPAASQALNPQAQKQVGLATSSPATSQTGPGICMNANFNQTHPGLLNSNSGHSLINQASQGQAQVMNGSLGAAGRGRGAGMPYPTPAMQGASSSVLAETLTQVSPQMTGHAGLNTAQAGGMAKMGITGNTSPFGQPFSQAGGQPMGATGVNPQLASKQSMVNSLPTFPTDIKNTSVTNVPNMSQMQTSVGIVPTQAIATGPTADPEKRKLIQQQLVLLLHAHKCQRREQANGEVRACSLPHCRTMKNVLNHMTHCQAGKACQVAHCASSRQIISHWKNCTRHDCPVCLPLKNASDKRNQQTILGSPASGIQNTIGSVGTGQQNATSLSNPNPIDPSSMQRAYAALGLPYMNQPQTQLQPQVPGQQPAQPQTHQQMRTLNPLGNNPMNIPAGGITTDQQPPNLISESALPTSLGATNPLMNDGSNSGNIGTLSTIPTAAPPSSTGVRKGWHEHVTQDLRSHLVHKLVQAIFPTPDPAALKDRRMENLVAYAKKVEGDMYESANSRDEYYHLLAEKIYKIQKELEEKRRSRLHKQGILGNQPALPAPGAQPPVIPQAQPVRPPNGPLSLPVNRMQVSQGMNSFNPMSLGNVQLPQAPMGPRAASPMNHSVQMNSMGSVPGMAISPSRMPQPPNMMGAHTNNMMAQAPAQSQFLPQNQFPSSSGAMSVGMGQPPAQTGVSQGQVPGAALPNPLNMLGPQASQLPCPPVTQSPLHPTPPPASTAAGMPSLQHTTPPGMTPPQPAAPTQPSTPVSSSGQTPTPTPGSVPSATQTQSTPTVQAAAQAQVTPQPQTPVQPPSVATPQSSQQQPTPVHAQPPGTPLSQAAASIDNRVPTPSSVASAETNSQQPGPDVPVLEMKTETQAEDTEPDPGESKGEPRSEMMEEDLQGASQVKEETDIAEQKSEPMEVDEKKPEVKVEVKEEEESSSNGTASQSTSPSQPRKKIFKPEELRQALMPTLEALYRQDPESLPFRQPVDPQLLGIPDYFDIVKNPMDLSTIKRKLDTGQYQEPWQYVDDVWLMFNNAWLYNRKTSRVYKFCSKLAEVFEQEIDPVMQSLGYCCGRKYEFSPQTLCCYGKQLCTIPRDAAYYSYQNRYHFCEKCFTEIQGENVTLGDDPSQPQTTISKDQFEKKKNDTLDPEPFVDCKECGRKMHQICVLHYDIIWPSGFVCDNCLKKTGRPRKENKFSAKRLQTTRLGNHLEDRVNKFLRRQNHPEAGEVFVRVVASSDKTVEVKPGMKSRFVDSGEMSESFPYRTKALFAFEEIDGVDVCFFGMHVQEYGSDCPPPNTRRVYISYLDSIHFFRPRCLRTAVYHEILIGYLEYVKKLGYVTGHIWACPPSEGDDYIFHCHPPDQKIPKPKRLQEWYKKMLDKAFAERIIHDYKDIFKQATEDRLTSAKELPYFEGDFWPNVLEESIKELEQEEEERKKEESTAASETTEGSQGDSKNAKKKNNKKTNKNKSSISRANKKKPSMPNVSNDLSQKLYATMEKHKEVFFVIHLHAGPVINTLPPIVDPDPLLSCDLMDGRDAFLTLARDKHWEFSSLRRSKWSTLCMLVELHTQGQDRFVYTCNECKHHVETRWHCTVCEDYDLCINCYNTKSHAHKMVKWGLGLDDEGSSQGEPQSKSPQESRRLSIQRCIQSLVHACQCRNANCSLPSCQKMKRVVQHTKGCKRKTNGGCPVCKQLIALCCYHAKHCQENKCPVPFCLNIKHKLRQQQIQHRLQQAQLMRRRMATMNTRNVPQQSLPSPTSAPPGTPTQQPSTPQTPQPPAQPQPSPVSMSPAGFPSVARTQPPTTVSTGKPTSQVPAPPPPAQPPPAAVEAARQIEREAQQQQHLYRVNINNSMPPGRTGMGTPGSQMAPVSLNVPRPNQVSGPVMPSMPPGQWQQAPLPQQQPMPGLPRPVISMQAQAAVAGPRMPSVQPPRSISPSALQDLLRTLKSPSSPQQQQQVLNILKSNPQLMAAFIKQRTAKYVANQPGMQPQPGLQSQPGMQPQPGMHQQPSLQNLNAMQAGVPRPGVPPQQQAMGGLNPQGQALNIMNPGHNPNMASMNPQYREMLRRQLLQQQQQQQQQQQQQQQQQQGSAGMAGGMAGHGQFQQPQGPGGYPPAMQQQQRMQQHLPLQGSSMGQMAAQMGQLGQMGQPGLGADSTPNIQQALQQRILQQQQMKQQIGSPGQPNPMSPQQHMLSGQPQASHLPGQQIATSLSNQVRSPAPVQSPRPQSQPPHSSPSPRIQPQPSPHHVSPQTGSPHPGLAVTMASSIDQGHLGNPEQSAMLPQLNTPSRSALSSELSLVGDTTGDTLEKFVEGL

[5] = target: Quadruplex DNA; experiment: Binding affinity to c-MYC G4 quadruplex DNA (unknown origin) assessed as dissociation constant by fluorescence titration based analysis; type: nucleic-acid assay
[6] = Binding affinity to bacterial beta-lactamase OXA-48 expressed in Escherichia coli BL21 (DE3) using nitrocefin as substrate pre-incubated for 5 mins and measured for 20 mins by spectrometric analysis; design: species or system Bacteria
[7] = target: Quadruplex DNA; experiment: Binding affinity to c-MYC G4- quadruplex DNA Pu22 (unknown origin) assessed as inhibition constant by SPR analysis; type: nucleic-acid assay
[8] = target: T1, 2',5'-phosphodiesterase 12 (Homo sapiens, UniProt Q6L8Q7); experiment: Binding affinity to PDE12 (unknown origin) (17 to 609 residues) assessed as inhibition constant by AMP-glo reagent based assay
T1 sequence (Q6L8Q7 whole entry): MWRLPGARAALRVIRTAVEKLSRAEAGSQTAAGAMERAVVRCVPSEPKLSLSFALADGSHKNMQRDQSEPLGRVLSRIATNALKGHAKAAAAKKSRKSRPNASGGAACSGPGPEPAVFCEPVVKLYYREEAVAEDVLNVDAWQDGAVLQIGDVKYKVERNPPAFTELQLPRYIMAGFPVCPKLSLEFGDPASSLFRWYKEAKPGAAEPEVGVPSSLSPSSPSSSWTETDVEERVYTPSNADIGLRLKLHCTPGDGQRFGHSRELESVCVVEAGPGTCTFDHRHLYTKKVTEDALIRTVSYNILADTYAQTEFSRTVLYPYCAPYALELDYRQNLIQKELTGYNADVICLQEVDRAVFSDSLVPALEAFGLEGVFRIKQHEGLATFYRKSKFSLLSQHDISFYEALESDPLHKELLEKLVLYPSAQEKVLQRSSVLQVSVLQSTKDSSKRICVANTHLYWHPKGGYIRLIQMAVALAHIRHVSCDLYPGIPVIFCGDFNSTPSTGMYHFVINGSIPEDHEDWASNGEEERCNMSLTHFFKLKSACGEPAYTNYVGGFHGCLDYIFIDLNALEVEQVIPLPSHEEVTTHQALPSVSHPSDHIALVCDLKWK

[9] = target: Carbonic anhydrase 9 (Homo sapiens, UniProt Q16790); experiment: Inhibition of human recombinant carbonic anhydrase IX
[10] = target: T2, Poly [ADP-ribose] polymerase tankyrase-1 (Homo sapiens, UniProt O95271); experiment: Binding affinity to TNKS1 (unknown origin) assessed as dissociation constant
T2 sequence (O95271 whole entry): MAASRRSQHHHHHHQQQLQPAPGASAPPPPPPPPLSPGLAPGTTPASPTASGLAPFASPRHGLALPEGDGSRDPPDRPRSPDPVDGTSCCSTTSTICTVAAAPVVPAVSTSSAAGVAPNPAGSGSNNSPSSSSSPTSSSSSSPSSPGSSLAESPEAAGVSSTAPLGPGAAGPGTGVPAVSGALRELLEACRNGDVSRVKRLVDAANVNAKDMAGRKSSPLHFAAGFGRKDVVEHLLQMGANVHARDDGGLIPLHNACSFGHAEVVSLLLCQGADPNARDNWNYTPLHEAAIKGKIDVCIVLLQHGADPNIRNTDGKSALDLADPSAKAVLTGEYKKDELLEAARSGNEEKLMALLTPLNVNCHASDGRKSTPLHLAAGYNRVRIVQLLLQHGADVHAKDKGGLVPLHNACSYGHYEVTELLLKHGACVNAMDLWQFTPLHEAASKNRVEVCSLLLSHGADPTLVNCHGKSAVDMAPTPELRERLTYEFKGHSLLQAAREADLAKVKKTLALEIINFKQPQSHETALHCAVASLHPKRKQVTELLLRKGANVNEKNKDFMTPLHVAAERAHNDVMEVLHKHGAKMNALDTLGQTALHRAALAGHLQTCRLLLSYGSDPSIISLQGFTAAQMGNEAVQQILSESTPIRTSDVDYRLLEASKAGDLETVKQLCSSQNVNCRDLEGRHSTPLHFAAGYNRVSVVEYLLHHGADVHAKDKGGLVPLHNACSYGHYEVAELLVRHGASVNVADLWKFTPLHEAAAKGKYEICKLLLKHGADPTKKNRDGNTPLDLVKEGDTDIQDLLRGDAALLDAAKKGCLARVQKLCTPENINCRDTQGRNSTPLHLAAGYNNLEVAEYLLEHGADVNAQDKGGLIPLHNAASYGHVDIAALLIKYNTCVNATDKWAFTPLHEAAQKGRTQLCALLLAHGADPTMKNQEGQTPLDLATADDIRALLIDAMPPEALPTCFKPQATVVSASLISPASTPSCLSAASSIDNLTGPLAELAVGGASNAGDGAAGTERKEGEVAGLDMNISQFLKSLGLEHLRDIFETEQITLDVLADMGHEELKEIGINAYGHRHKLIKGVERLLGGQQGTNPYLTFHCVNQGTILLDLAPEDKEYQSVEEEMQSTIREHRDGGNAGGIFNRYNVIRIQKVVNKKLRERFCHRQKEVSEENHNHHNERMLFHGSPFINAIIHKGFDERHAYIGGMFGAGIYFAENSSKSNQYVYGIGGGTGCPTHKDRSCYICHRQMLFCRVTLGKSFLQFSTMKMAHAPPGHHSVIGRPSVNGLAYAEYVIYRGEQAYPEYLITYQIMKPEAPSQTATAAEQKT

[11] = target: Autotaxin (Homo sapiens, UniProt Q13822); experiment: Inhibition of ATX (unknown origin)
[12] = target: Prothrombin (Homo sapiens, UniProt P00734); experiment: Binding affinity to thrombin (unknown origin) assessed as inhibition constant
[13] = target: T3, Proteinase-activated receptor 2 (Homo sapiens, UniProt P55085); experiment: Antagonist activity at PAR2 (unknown origin) expressed in human 1321N1 cells; type: cell-based
T3 sequence (P55085 whole entry): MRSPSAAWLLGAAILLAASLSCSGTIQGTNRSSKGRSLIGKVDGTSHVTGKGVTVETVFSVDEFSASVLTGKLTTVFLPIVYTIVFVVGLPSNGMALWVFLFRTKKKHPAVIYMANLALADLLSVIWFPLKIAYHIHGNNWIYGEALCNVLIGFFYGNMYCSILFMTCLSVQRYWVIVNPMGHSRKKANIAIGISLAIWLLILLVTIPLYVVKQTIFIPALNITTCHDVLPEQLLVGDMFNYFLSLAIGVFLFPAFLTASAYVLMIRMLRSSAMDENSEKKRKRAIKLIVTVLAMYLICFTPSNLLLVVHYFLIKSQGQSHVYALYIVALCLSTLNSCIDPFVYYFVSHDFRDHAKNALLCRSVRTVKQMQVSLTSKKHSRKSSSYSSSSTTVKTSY

[14] = target: Mitogen-activated protein kinase 8 (Homo sapiens, UniProt P45983); experiment: Binding affinity to JNK1 (unknown origin) assessed as dissociation constant
Mitogen-activated protein kinase 8, sequence (P45983 whole entry): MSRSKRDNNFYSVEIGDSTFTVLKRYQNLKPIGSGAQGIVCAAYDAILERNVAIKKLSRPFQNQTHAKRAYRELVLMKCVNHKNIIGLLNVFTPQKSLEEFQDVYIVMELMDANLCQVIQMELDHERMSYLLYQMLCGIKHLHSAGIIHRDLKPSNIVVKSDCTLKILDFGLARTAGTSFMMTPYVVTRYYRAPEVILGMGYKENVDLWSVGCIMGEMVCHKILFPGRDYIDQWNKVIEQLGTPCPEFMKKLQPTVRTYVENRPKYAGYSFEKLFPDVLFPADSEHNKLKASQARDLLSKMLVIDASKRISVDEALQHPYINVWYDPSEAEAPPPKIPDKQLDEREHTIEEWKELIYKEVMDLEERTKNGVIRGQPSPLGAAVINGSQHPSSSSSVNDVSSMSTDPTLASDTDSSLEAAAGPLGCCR

[15] = target: Albumin (Homo sapiens, UniProt P02768); experiment: Binding affinity to human serum albumin by fluorescence polarization assay
Albumin, sequence (P02768 whole entry): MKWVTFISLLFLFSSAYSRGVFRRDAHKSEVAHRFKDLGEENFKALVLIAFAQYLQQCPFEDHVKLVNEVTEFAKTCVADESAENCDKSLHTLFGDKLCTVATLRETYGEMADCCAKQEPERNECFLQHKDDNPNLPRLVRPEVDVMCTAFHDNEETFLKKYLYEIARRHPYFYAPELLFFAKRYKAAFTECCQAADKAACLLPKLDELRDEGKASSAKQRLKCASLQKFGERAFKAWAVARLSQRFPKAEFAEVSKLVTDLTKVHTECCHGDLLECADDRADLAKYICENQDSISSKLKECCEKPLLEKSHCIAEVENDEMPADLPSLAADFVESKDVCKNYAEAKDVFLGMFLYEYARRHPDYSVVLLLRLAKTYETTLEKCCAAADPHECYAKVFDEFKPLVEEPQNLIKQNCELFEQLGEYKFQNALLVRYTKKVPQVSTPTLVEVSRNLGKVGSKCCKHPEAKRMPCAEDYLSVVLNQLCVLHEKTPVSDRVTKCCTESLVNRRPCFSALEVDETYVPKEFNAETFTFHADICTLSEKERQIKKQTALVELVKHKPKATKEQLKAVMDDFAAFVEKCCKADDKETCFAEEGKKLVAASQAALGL

[16] = Solubility of the compound; type: physicochemical
[17] = Binding affinity to Peptoid-inspired conformationally constrained oligomer (unknown origin) assessed as dissociation constant
[18] = system: Bacillus subtilis; experiment: Antibacterial activity against Bacillus subtilis ATCC 23857 assessed as bacterial growth inhibition incubated for 16 hrs by broth dilution assay; type: functional
[19] = system: Escherichia coli; experiment: Antibacterial activity against Escherichia coli ATCC 25922 assessed as bacterial growth inhibition measured after 16 hrs by broth dilution assay; type: functional

COc1ccc(Nc2nc(NCCc3ccccc3F)nc(Nc3ccc4ncccc4c3)n2)cc1OC
IC50 [1]: 2100 nM

O=C(c1ccccc1)N1CCC2(CCCN(c3ncc(-c4ccccc4)c(-c4ccc(Cl)cc4)n3)C2)CC1
IC50 [2]: 45.8 nM

O=C(c1ccc2[nH]ccc2c1)N1CCC2(CCCN(c3ncc(-c4ccccc4)c(-c4ccc(Cl)cc4)n3)C2)CC1
IC50 [2]: 42.1 nM

CCn1c(-c2ccccc2-c2ccc(C)cc2C)nc2cc(C(=O)NC)ccc21
Ki [3]: 1.2 nM

C[C@@H]1CC(=O)Cc2cccc(C(=O)NCCNC(=O)CSC(=S)c3ccccc3)c2N1
IC50 [4]: 17000 nM

CNC(=O)CN(Cc1ccc(OCC(=O)NCc2nc3ccccc3c(=O)[nH]2)c(Cl)c1)Cc1cccn1C
Kd [5]: 1050 nM

CCOc1ccccc1N1CCN(c2ncnc(N3CCC(C(=O)O)CC3)n2)CC1
Ki [6]: 530 nM

Cc1cnccc1N1CCN(c2nccc3c2nc(-c2c[nH]c4ccncc24)n3C)CC1
Ki [7]: 328 nM

Cn1c(-c2c[nH]c3cc(C#N)ccc23)nc2ccc(C(=O)N3CCOC(c4ccccc4)C3CO)cc21 (stereo unspecified)
Ki [8]: 17.5 nM

CNC(=O)[C@@H]1[C@@H](c2ccc(-c3ccc(S(N)(=O)=O)cc3)cc2)CN1Cc1ccc(O)c2ncccc12
IC50 [9]: 20.1 nM

CCOc1ccccc1N1CCN(c2ncnc(N3CCC(S(=O)(=O)O)CC3)n2)CC1
Ki [6]: 260 nM

Cc1cn(CC(=O)N[C@@H](CCCCn2cc(-c3ccncc3F)nn2)C(N)=O)c(=O)[nH]c1=O
Kd [10]: 15 nM

NC(=O)CN1CN(c2ccccc2)C2(CCN(C(=O)CCc3ccc(Cl)cc3Cl)CC2)C1=O
IC50 [11]: 2800 nM

CNC(=O)[C@@H]1CN(C(=O)[C@@H](Cc2ccccc2CNC(=N)N)NC(=O)N(C)C2CCOc3ccccc32)C[C@H]1c1ccc(OC)cc1 (stereo partly specified)
Ki [12]: 1 nM

CC(C1CCCCC1)n1c(-c2cc3c(cc2Br)OCO3)nc2cc(C(=O)Nc3ccc(C#N)cc3)ccc21 (stereo unspecified)
IC50 [13]: 23 nM

O=C(/C=C/C(=O)c1ccc(F)c(F)c1)NCCOCCOCCNC(=O)c1cccnc1Oc1ccccc1
Kd [14]: 1000 nM

NCCOCCOCCNC(=O)c1cccc(NC(=O)OC2CCN(C(=O)c3ccc(-c4nc5ccccc5[nH]4)cc3)CC2)c1
Ki [15]: 49.7 nM | solubility [16]: 54 µg/mL (≈ 87.8 µM)

NC(=O)c1coc(CN(Cc2ccc3c(c2)OCO3)C(=O)c2coc(CN(Cc3ccc4c(c3)OCO4)C(=O)c3ncc(CCl)o3)n2)n1
Kd [17]: 30 nM

O=C(O)c1cn(C2CC2)c2nc(N3CCNCC3)c(F)cc2c1=O
MIC [18]: 0.063 µg/mL (≈ 0.19 µM) | MIC [19]: 0.016 µg/mL (≈ 0.0481 µM)
